Assay results: US9095613B2, “Photosensitizer-metal nanoparticle charge complex and composition containing the complex for photodynamic therapy or diagnosis” (NATIONAL CANCER CENTER, priority 2009, dated 2015)
Where two headings read alike, the source gives them in different places.

What was measured:
[1] = at 630 nm; cited from earlier work
skin photosensitivity = conditions: patient after administration; cited from earlier work
[2] = test system: SCC7 (Squamous cell Carcinoma) cell line; assay: Quantitative analysis of uptake into cells (fluorescence of cell lysis solution); type: cell-based; conditions: 5 μM AlPcS4 equivalent, 4 hours
Procedure: 90000 cells of a SCC7 (Squamous cell Carcinoma) cell line per well were seeded in a 96 well plate and cultured for 24 hours. Afterwards, the AlPcS4 and the GNR/AlPcS4 complex prepared in Preparation Example 2-4 were diluted with a cell culture medium containing serum to have an equivalent concentration of 5 μM AlPcS4. […] of the diluted solution per well was added, and maintained at 37° C. for 4 hours. Subsequently, after the cell culture medium containing the photosensitizer was removed, the cells were washed three times, and then treated with 200 μl of 0.1% SDS/0.1M NaOH solution for 2 hours for cell lysis. Then, a fluorescence signal of the AlPcS4 generated from this solution was measured (Ex. 660 nm, Em. 690 nm).

SCC7 cell line = assay: Cell viability test after photodynamic therapy (CCK-8); type: cell-based; conditions: 5 μM AlPcS4 equivalent, 670 nm, 10 J/cm^2, after 24 hours
Procedure: 9000 cells of a SCC7 cell line per well were seeded in a 96 well plate, and cultured for 24 hours. After the AlPcS4 and the GNR/AlPcS4 complex prepared in Preparation Example 2-4 were diluted with a cell culture medium to have an equivalent concentration of 5 μM AlPcS4, 200 μl of the diluted solution per well was added and then maintained at 37° C. for 4 hours. For a control group, the same volume of cell culture medium was added to the plate. Afterwards, to remove the photosensitizer which was not taken up into the cell, the cells were washed with a cell culture medium twice, and then a fresh cell culture medium was added. The PDT-treated groups were irradiated with light at 670 nm using laser under conditions of a light dose density of 50 mW/cm^2 and light doses of 5 J/cm^2 and 10 J/cm^2. After 24 hours, cell viability was measured using a cell counting kit-8 (CCK-8, Dojindo Laboratories).

SCC7 xenograft tumor [3] = assay: Near-infrared fluorescence imaging of tumor in xenograft model; type: in vivo, Balb/c-nu mice; conditions: 1 mg AlPcS4 equivalent/kg, tail vein, 24 hours after injection
Procedure: (§1) 2×10^6 cells per 100 μl of the SCC7 cell line were injected subcutaneously to hind legs of Balb/c-nu mice of 19 to 22 g to create xenograft tumor models. When a tumor was grown to a size of about […], 29 experimental animals were divided into three groups (Day 0) based on the tumor size. Among them, 6 mice were used for near-infrared fluorescence imaging using the photosensitizer, and the other 23 mice were used to observe an inhibitory effect on tumor growth through the photodynamic therapy. A volume of the tumor was calculated with an equation of height×length×width×0.5.
(§2) For each of the AlPcS4-treated group and the GNR/AlPcS4 complex-treated group, the drug (each of AlPcS4 and GNR/AlPcS4 complex prepared in Preparation Example 2-4) dissolved in PBS (6.7 mM, pH 7.4, NaCl 154 mM) was injected into a tail vein of a mouse at the dose of 1 mg AlPcS4 equivalent/kilogram body weight. […] To compare the near-infrared fluorescence image and the accumulated amount in the tumor of the injected photosensitizer, two mice were taken from each group after 24 hours from the treatment of the drug (Day 2), and therefrom fluorescence images of AlPcS4 were obtained using a near-infrared fluorescence image device (IVIS Lumina) (Cy5.5 channel; Ex. filter 615-665 nm, Em. Filter 695-770 nm).

SCC7 xenograft tumor [4] = assay: Inhibition of tumor growth by photodynamic therapy in xenograft model; type: in vivo, Balb/c-nu mice; conditions: 1 mg AlPcS4 equivalent/kg i.v., 670 nm 60 J/cm^2
Procedure: as §1
as §2, with “nm). […]” for “nm).”

[5] = at 675 nm, known value; cited from earlier work

average fluorescence signal in tumor (SCC7 xenograft tumor [3]) [counts]	tumor-to-background ratio of the AlPcS4 fluorescence (SCC7 xenograft tumor [3])	Molecule	molar absorption coefficient [1] [M⁻¹ cm⁻¹]	duration of side effect of skin photosensitivity (skin photosensitivity)	effect of increasing amount of serum (FBS) on uptake into cells [2]	phototoxicity (SCC7 cell line) [%]	course of tumor size after photodynamic therapy (SCC7 xenograft tumor [4])	size of the tumor relative to control group (SCC7 xenograft tumor [4]; fifth day) [%]	molar absorption coefficient [5] [M⁻¹ cm⁻¹]
–	–	Photofrin	1170	more than 6 week	–	–	–	–	–
7224	2.5	Al(III) phthalocyanine chloride tetrasulfonic acid [AlPcS4]	–	–	greatly decreased	64	temporarily decreased	67	170000
–	–	C=Cc1c(C)c2cc3nc(c(CC(=O)N[C@@H](CC(=O)[O-])C(=O)[O-])c4nc(cc5[nH]c(cc1[nH]2)c(C)c5CC)C(C)=C4C(=O)[O-])[C@@H](CCC(=O)[O-])[C@@H]3C.[Na+].[Na+].[Na+].[Na+] [Mono-L-aspartyl chlorine e6, mono-L-aspartyl chlorine e6]	–	1 week	–	–	–	–	–
